# Legend:
# [1] = system: acetylation state of α-Tubulin and histones (H3K9 and H4K12); assay: Acetylation level assay (Western blot) in human iPSC-derived neural progenitor cells; type: cell-based; conditions: ACY1215 5 μM, other compounds 10 μM; 6 h at 37° C.
# [2] = molecular target: T1, HDAC6 (Rattus norvegicus (Rat), UniProt A0A8I6GM68); assay: Autoradiography competition with radiolabeled Example 2 on rat brain slices; type: binding, Sprague-Dawley rat
# Method: Sagittal slices of Sprague-Dawley rat brains were sectioned (10 μm) with a cryostat (Thermo Scientific HM550) and mounted onto ColorFrost Plus microscope slides (Fisher Scientific 12-550-18) and stored at −20° C. […] After 15 min, 50 μCi of the radiolabeled compound of Example 2 was added to each bath. After 15 minutes, all slides were washed by dipping 10× into buffer and subsequently submerged in 50 mL baths of buffer at 4° C. for 5 minutes. The slides were dried at 35° C. in a vacuum chamber. A phosphorus screen (Perkin Elmer 7001723) was exposed with the slides for 45 minutes and subsequently imaged with a Cyclone Plus Storage Phosphor (Perkin Elmer) detector. ImageJ was used to apply a Gaussian blur (3.0 radius) smoothing and a lookup table (Royal) with equivalent thresholds for brightness was applied. Raw intensity values from gray and white matter were quantified with the ImageJ measurement tool.
# [3] = molecular target: T1, HDAC6; assay: PET/CT imaging in rats with radiolabeled Example 2; type: in vivo, Sprague-Dawley rats
# Method: 8 male Sprague-Dawley rats (Charles River Laboratories) were used for PET imaging. […] For intravenous administration, a catheter with an extension line was placed in a lateral tail vein. Each animal received a bolus injection of either vehicle (1:1:8 DMSO/Tween80/saline) or blocking agent in solution (1 mg/kg, 1 mg/mL in 1:1:8 DMSO/Tween80/saline) immediately prior to injection of the radiotracer.
# After injection of a radiotracer bolus (˜700 ρCi Example 2) a 90 min dynamic PET scan was acquired in pairs for all animals. PET scans were performed on a GammaMedica Triumph PET/CT/SPECT scanner, corrected for attenuation with a μ-map derived from the corresponding CT image, which was acquired immediately following the PET scan. The dynamic PET data was binned into 38 timeframes (8×15 s, 8×1 min, 10×2 min, 12×5) and reconstructed individually via an iterative MLEM (maximum likelihood expectation maximization) algorithm in 16 iterations.
# PET images were coregistered to the CT image acquired from the same animal using AMIDE Data sets were cropped and all further image analysis was conducted using PMOD 3.3 (PMOD Technologies, Zurich, Switzerland). For maximum consistency, the data were coregistered to the Schiffer Px Rat rat brain template and data was derived from a whole brain VOI (volumes of interest) for time activity curves.
# [4] = Microsome stability; conditions: hu
# [5] = Hepatocyte stability; conditions: hu
# [6] = molecular target: HDAC6 (Homo sapiens (Human), UniProt Q9UBN7); assay: HDAC IC50 assay by Nanosyn (Caliper microfluidics mobility shift detection); type: biochemical
# HDAC6 (Homo sapiens (Human), UniProt Q9UBN7), sequence (Q9UBN7 whole entry): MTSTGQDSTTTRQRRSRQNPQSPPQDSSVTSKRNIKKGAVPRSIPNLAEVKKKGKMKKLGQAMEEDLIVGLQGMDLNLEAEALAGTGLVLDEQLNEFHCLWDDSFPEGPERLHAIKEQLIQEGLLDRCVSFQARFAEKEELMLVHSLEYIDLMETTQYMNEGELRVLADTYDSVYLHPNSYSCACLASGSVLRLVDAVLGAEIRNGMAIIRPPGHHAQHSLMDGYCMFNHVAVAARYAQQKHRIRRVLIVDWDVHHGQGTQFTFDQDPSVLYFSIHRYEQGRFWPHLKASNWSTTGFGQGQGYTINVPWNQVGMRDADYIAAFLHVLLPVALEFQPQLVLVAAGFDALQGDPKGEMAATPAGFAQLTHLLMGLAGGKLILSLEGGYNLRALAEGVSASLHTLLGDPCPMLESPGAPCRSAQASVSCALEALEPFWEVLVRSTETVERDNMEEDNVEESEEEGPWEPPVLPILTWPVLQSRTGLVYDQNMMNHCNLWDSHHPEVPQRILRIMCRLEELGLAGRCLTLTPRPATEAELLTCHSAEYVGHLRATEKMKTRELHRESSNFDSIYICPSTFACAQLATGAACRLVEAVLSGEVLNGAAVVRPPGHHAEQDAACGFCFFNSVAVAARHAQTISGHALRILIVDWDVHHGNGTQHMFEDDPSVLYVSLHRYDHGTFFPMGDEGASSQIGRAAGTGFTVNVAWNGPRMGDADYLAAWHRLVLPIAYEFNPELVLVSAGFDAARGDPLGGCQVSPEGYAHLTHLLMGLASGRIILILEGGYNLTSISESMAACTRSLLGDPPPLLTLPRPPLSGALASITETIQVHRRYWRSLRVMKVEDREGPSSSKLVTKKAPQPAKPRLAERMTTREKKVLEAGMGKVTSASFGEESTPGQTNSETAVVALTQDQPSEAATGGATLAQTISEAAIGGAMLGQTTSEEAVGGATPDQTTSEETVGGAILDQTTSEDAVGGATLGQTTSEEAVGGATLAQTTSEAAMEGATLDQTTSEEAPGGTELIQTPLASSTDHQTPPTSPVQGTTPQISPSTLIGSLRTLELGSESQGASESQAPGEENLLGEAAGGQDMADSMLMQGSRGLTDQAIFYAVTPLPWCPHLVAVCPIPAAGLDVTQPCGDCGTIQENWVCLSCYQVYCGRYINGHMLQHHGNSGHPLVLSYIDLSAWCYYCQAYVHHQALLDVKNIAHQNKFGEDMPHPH
# T1 sequence (A0A8I6GM68 whole entry): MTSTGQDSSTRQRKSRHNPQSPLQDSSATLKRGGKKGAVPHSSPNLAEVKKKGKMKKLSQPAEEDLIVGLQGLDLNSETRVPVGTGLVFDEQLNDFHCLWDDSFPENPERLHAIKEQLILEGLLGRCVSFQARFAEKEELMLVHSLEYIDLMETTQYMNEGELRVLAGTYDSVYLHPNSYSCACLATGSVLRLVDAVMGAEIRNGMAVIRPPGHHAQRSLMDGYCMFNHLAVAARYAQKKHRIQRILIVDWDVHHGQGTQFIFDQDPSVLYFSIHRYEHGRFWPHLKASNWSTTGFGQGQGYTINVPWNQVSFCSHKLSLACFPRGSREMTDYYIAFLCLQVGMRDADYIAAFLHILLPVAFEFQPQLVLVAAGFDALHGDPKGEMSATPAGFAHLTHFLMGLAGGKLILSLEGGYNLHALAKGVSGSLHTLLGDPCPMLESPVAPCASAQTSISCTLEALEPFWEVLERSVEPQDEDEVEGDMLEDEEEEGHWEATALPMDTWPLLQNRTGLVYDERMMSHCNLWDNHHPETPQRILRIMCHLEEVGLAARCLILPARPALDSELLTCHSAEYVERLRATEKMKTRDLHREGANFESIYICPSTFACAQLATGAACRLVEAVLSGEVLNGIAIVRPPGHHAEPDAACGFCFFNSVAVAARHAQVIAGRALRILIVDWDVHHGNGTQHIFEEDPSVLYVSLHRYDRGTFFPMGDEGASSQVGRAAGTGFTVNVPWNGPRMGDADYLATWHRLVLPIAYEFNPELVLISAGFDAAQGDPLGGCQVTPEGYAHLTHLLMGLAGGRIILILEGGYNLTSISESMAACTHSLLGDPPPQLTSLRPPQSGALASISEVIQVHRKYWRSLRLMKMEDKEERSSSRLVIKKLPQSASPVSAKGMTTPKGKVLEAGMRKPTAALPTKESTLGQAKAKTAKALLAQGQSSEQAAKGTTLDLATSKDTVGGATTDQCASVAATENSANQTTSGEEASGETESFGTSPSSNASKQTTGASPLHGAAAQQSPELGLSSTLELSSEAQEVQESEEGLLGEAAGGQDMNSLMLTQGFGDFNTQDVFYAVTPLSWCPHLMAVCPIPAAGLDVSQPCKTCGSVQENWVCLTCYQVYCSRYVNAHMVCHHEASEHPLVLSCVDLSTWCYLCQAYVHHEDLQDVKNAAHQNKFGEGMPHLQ
Structure (SMILES),Histone acetylation on H4K12 [1],amount of cellular acetyl-α-Tubulin [1],Histone acetylation on H3K9 [1],also measured
"O=C(CCCCCCNC(=O)c1cnc(N(c2ccccc2)c2ccccc2)nc1)NO [ACY-1215, ricolinostat]",significantly increased,increased,,
"CC(=O)Nc1ccc(C(=O)Nc2ccccc2N)cc1 [CI-994, tacedinaline]",significantly increased,did not increase,significantly increased,
"CN(Cc1ccc(C(=O)NO)cc1F)CC12CC3CC(CC(C3)C1)C2 [Example 1, 4-(((((3s)-Adamantan-1-yl)methyl)(methyl)amino)methyl)-3-fluoro-N-hydroxybenzamide]",remained unaltered,increased,remained unaltered,"binding of radiolabeled Example 2 to rat brain slices in presence of competitor ([2]; competitor at 1 μM): significantly reduced; effect of pretreatment on brain uptake of radiolabeled Example 2 ([3]; 1 mg/kg immediately prior to radiotracer): blocking of brain uptake; effect on time activity curve of radiolabeled Example 2 ([3]; 1 mg/kg, 30-minutes post radiotracer administration): clear deflection of the time activity curve; Microsome stability (half-life, min) [4]: 19 min; Hepatocyte stability (half-life, min) [5]: 20 (hu) min"
"CN(Cc1ccc(C(=O)NO)cc1[18F])CC12CC3CC(CC(C3)C1)C2 [Example 2, 4-((((Adamantan-1-yl)methyl)(methyl)amino)methyl)-3-[^18F]fluoro-N-hydroxybenzamide]",,,,"brain uptake and retention ([3]; PET, radiotracer iv bolus): excellent; off-rate in preclinical PET ([3]; rat, in vivo): slow"
CC(CC12CC3CC(CC(C3)C1)C2)N(C)Cc1ccc(C(=O)NO)cc1 (centres unmarked) [Example 20],,,,IC50 [6]: 290 nM
CN1CCc2c(c3ccccc3n2Cc2ccc(C(=O)NO)cc2)C1 [Tubastatin A],remained unaltered,increased,remained unaltered,binding of radiolabeled Example 2 to rat brain slices in presence of competitor ([2]; competitor at final concentration of 100 μM): reduce the amount of bound radioactivity to the same background as 10 μM Example 1
